Reference: patent US9447083B2, “N-acylhydrazone derivatives for selective T cell inhibitor and anti-lymphoid malignancy drug” (CHONG KUN DANG PHARMACEUTICAL CORP., priority 2012, dated 2016)
Read-outs that look alike come from different tables or passages of the source.

How the values were obtained:
[1] = test system: acute graft-versus-host disease; experiment: Acute graft-versus-host disease, mouse model of allogeneic bone marrow transplantation; type: in vivo; conditions: 25 mg/kg intraperitoneally daily for 10 days
From the text: Lymph nodes, spleens, both femurs and tibias were aseptically collected from normal C57BL/6 mice (8-12 week old, female, 20-23 g), and T cells were isolated from the lymph nodes and spleens in the same manner as described in Experimental Example 2 and were re-suspended in PBS at a concentration of 8×10^7 cells/mL. The femurs and tibias were cut at the ends, and the bone marrow was flushed from femurs and tibias with RPMI medium using a syringe (21G for femur and 26G for tibia) to extract the marrow, which was then suspended and passed through a cell strainer to make a single cell suspension. The bone marrow cell suspension was centrifuged at 1200 rpm for 5 minutes, and the supernatant was removed, then the cells were added to 1 mL of ACK lysis buffer and vortexed for 1 minute, followed by washing with RPMI medium. […] The incubated cell suspension was added with 5 mL of MACS buffer, centrifuged for 5 minutes, washed, and then re-suspended in 2 mL of MACS buffer. The suspended cells were placed in the autoMACS Pro Separator, and T cells bound to the CD90.2 microbeads were removed. The separated T cell-depleted bone marrow cells (TCD-BM) were washed with PBS and re-suspended in PBS at a concentration of 1×10^8 cells/mL. Normal BDF1 mice (10-12 week old, female, 20-23 g) were irradiated with 850 rad of γ radiation using an irradiator, and then 100 μL of a graft obtained by mixing the C57BL/6 mouse T cells and the TCD-BM at a ratio of 1:1 was injected into the tail vein of the BDF1 mice. In a group treated with compound 229 of the present invention, compound 229 was completely dissolved in a Cremophor EL-ethanol mixture (1:1, v/v) in an amount corresponding to 15% (v/v) of the administration volume, after which the compound solution was diluted in PBS, and the dilution was administered intraperitoneally to each mouse at a dose of 25 mg/kg daily for 10 days from the day of the graft injection. Meanwhile, Tacrolimus that is a currently clinically used immunosuppressive agent was administered to mice of another group in the same amount as compound 229 in order to compare the inhibitory effect on acute graft-versus-host disease, and mice of a vehicle control group were administered with 200 μL of a Cremophor EL-ethanol-PBS (7.5:7.5:85, v/v/v) in the same manner as the treated groups. Then, the survival of mice was monitored daily, and the severity of GVHD was assessed twice a week with clinical GVHD scoring system for each a decrease in weight loss, hunched posture, decreased activity, fur ruffling and skin lesions. Each parameters were scored on a 3-point (0 to 2) scale.

IM9 = experiment: Apoptosis of lymphoid malignancy cell lines: IM9; type: cell-based; conditions: Homo sapiens, IM-9; IM9, Multiple myeloma, 24 hours; read-out: Administration Dose (mean ± SD, μmol/L) Lethal Dose 50 (Apoptosis)
Experimental: (§1) Each of the acute T cell leukemia cell lines Jurkat, Molt4 and CCRF-CEM, the acute B cell leukemia cell line Raji and the […] cell lines KMS11, KMS12BM, KMS26, KMS28BM, and IM9 was re-suspended in 10% FBS-containing RPMI medium at a concentration of 1.5×10^5 cells/mL, and 200 μL of each of the cell suspensions was cultured in a flat bottom 96-well plate (Costar). The acute NK cell lymphoma cell line NK-92MI was re-suspended in α-MEM medium (supplemented with 20% FBS, 1×MEM vitamine solution, 50 μM 2-mercaptoethanol and 1× penicillin/streptomycin) at a concentration of 1.5×10^5 cells/mL, and 200 μL of the cell suspension was cultured in a flat bottom 96-well plate. The cells in each well was treated with 10 μL of each of 0.1, 0.25, 0.5, 0.75 and 1 μM of the compound diluted with RPMI medium, followed by that the cells were incubated in a 5% CO2 incubator at 37° C. for 24 hours. In a vehicle control group, cells were treated with 10 μL of medium containing 0.05% dimetylsulfoxide (DMSO, Sigma).
(§2) The cells were collected, and then the apoptosis thereof was analyzed by a flow cytometer after staining with Annexin V-7-AAD. The incubated cells were collected, placed in a 5-mL FACS tube (BD Falcon) and washed with 1 mL of fluorescence activated cell sorting (FACS) buffer (1%. FBS and 0.1% sodium azaide in PBS). The cells were re-suspended in 0.1 mL of FACS buffer, followed by that the cells were treated and stained with phycoerythrin-Annexin V at room temperature for 10 minutes. After 10 minutes of staining, the cells were treated and stained with 7-AAD at room temperature for 5 minutes. The stained cells were suspended in 0.3 mL of FACS buffer, and then analyzed by a flow cytometer. […] Thus, compounds 065, 108, 229 and 457 of the present invention can be used as a novel anti-lymphoid malignancy drug.

Jurkat = experiment: Apoptosis of lymphoid malignancy cell lines (Annexin V / 7-AAD): Jurkat; type: cell-based; conditions: Homo sapiens, Acute T cell leukemia, 24 hours, read-out: Administration Dose (mean ± SD, μmol/L) Lethal Dose 50 (Apoptosis)
Experimental: as §1, §2

Jurkat T cells = experiment: Pro-apoptotic activity on Jurkat T cells (FITC-Annexin V / 7-AAD flow cytometry); type: cell-based; conditions: Homo sapiens, 72 hours, cells stained with FITC-Annexin V and 7-AAD among total cells
Method in brief: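 Jurkat cells at 1.5×10^5 cells/mL in RPMI/10% FBS treated with compounds at […] or 5 μM final for 72 h at 37° C, vehicle containing 1% DMSO. Stained with FITC-Annexin V and 7-AAD for 15 min at room temperature in pH 7.4 Hepes binding buffer. Apoptosis = % double-stained cells by flow cytometry.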

Molt4 = experiment: Apoptosis of lymphoid malignancy cell lines: Molt4; type: cell-based; conditions: Homo sapiens, MOLT-4; Molt4, Acute T cell leukemia, 24 hours; read-out: Administration Dose (mean ± SD, μmol/L) Lethal Dose 50 (Apoptosis)
Experimental: as §1, §2

[2] = test system: Experimental Autoimmune Encephalomyelitis (EAE); experiment: Experimental Autoimmune Encephalomyelitis (EAE) model of multiple sclerosis; type: in vivo, mouse; conditions: 1 mg/kg orally daily from 17 to 37 days
Experimental: At the first day of induction, myelin oligodendrocyte glycoprotein35-55 (MOG35-55, Peptron) (200 ug), mycobacterium tuberculosis (Difco, Cat No. 231141) (500 μg) and complete Freund's adjuvant (Sigma Aldrich, Cat No. F5506) were mixed with each other and immersed for 5 minutes. 0.1 mL of the immersed peptide was injected subcutaneously into both the flanks of each of C57BL/6 mice (9 week old, female, 18±2 g), followed by that […] pertussis toxin (Sigma Aldrich, Cat No. P2980) (200 ng) was injected by intravenously. At 2 days, the same amount of pertussis toxin was administered intravenously. Whether the immersion leaked from the injected portion of the mice was checked, and whether EAE was induced was also examined by visual observation from 7 days.
Compound 229 and Fingolimod that is currently clinically used for the treatment of multiple sclerosis were completely dissolved in a Cremophor EL-ethanol mixture (1:1, v/v) in an amount corresponding to 7.5% (v/v) of the administration volume, and the compound solution was diluted in PBS. The two groups of the mice were administered orally with 200 μL of the diluted solution of compound 229 at each doses of 25 and 50 mg/kg separately, and the third group of the mice was administered orally with 200 μL of the diluted solution of fingolimode at a dose of 1 mg/kg on a daily basis from 17 days to 37 days (for total 21 times) after starting of the experiment. In a vehicle control group, 200 μL of a Cremophor EL-ethanol-PBS mixture (3.75:3.75:92.5, v/v/v) was administered to each mouse in the same manner as the treated group. The index of EAE was recorded daily based on visual observation using a severity index system (6-point (0 to 5) scale) from 7 days of the experiment. The symptoms of multiple sclerosis were evaluated based on the following criteria:
2: limp tail and hind limb weakness;
4: hind limb paralysis and forelimb weakness; and […]

[3] = read-out: Cell Apoptosis Effect to Jurkat T Cell (% in 5 μM)
[4] = read-out: Jurkat T Cell Apoptosis (% in 5 μM)

SMILES	cytotoxicity at 5 µM (Jurkat T cells; [3])	cytotoxicity at 5 µM (Jurkat T cells; [4])	other results
C=CC[C@@H]1/C=C(\C)C[C@H](C)C[C@H](OC)[C@H]2O[C@@](O)(C(=O)C(=O)N3CCCC[C@H]3C(=O)O[C@H](/C(C)=C/[C@@H]3CC[C@@H](O)[C@H](OC)C3)[C@H](C)[C@@H](O)CC1=O)[C@H](C)C[C@@H]2OC [Tacrolimus, reference compound]	–	–	severity of GVHD (clinical scoring system) [1]: ruffled fur and severe skin lesions; survival rate ([1]; final (day 70), vehicle 10%): 50%; mouse death, days after cell transplantation ([1]; vehicle from 29 days): ≥ 23 days
Cc1cc(C)c(OCC(=O)N/N=C/c2cccc3[nH]ccc23)c(C)c1 [Compound 065, (E)-N′-((1H-indol-4-yl)methylene)-2-(mesityloxy)acetohydrazide]	100%	–	EC50 (IM9): 1.21 ± 0.01 µmol/L; EC50 (Jurkat): 0.79 ± 0.01 µmol/L; EC50 (Molt4): 1.58 ± 0.03 µmol/L
CCCCCCCCc1ccc(CCC(N)(CO)CO)cc1 [Fingolimod, reference compound]	–	–	severity index (EAE, 0 to 5 scale) ([2]; at 17 days (start of administration)): 3±1; severity index (EAE, 0 to 5 scale) ([2]; at 39 days, vehicle 2.5±0.75): 1.5±0.5; severity index (EAE, 0 to 5 scale) ([2]; at 101 days, vehicle 2.33±0.25): 2.7±0.25
Cc1cc(C)c(NCC(=O)N/N=C/c2cccc3[nH]ccc23)c(C)c1 [Compound 135, (E)-N′-((1H-indol-4-yl)methylene)-2-(mesitylamino)acetohydrazide]	100%	–	–
Cc1cc(C)c(OCC(=O)N/N=C/c2ccc3cc[nH]c3c2)c(Br)c1 [Compound 260, (E)-N′-((1H-indol-6-yl)methylene)-2-(2-bromo-4,6-dimethylphenoxy)acetohydrazide]	–	100%	–
Cc1cc(C)c(OCC(=O)N/N=C/c2cccc3[nH]ccc23)c(Br)c1 [Compound 259, (E)-N′-((1H-indol-4-yl)methylene)-2-(2-bromo-4,6-dimethylphenoxy)acetohydrazide]	–	100%	–
Cc1ncccc1OCC(=O)N/N=C/c1cccc2[nH]ccc12 [Compound 187, (E)-N′-((1H-indol-4-yl)methylene)-2-((2-methylpyridin-3-yl)oxy)acetohydrazide]	100%	–	–
Cc1cc(C)c(OCC(=O)N/N=C/c2ccc3cc[nH]c3c2)c(-c2cccnc2)c1 [Compound 183, (E)-N′-((1H-indol-6-yl)methylene)-2-(2,4-dimethyl-6-(pyridin-3-yl)phenoxy)acetohydrazide]	100%	–	–
Cc1ccccc1OCC(=O)N/N=C/c1ccc2[nH]ccc2c1 [Compound 014]	100%	–	–
Cc1ccccc1OCC(=O)N/N=C/c1cccc2[nH]ccc12 [Compound 013, (E)-N′-((1H-indol-4-yl)methylene)-2-(o-tosyloxy)acetohydrazide]	100%	–	–
Cc1ccnc(C)c1OCC(=O)N/N=C/c1ccc2cc[nH]c2c1 [Compound 191]	100%	–	–
Cc1cc(OCC(=O)N/N=C/c2ccc3cc[nH]c3c2)cc(C)n1 [Compound 288]	–	90%	–
Cc1cc(C)c(OCC(=O)N(COC(=O)c2ccc(CN3CCOCC3)cc2)/N=C/c2ccc3cc[nH]c3c2)c(C)c1 [Compound 272, (E)-(2-((1H-indol-6-yl)methylene)-1-(2-(mesityloxy)acetyl)hydrazinyl)methyl 4-(morpholinomethyl)benzoate]	–	100%	–
Cc1cc(C)c(OCC(=O)N(CO)/N=C/c2cccc3[nH]ccc23)c(C)c1 [Compound 244, (E)-N′-((1H-indol-4-yl)methylene)-N-(hydroxymethyl)-2-(mesityloxy)acetohydrazide]	100%	–	–
Cc1cc(C)c(OCC(=O)N/N=C/c2cccc3c2ccn3CCO)c(C)c1 [Compound 180, (E)-N′-((1-(2-hydroxyethyl)-1H-indol-4-yl)methylene)-2-(mesityloxy)acetohydrazide]	90%	–	–
Cc1cc(C)c(OCC(=O)N(CO)/N=C/c2ccc3cc[nH]c3c2)c(C)c1 [Compound 233, (E)-N′-((1H-indol-6-yl)methylene)-N-(hydroxymethyl)-2-(mesityloxy)acetohydrazide]	100%	–	–
CC(=O)N(/N=C/c1ccc2cc[nH]c2c1)C(=O)COc1c(C)cc(C)cc1C [Compound 243, (E)-N′-((1H-indol-6-yl)methylene)-N-acetyl-2-(mesityloxy)acetohydrazide]	100%	–	–
CC(=O)OCN(/N=C/c1ccc2cc[nH]c2c1)C(=O)COc1c(C)cc(C)cc1C [Compound 252, (E)-(2-((1H-indol-6-yl)methylene)-1-(2-(mesityloxy)acetyl)hydrazinyl)methyl acetate]	100%	–	–
COc1ccc(OCC(=O)N/N=C/c2ccc3cc[nH]c3c2)c(C(C)(C)C)c1 [Compound 303]	–	100%	–
Cc1cccc(OCC(=O)N/N=C/c2cccc3[nH]ccc23)c1C [Compound 326, (E)-N′-((1H-indol-4-yl)methylene)-2-(2,3-dimethylphenoxy)acetohydrazide]	–	95%	–
